# Measurements as given in publication PMC7986605 (Journal of Neuroscience Research, 2021).
# System: primary hippocampal/cortical neuronal and glial cultures
# Conditions: Sprague-Dawley, rat
row,Compound,concentrations at which the compound was toxic/cytotoxic
1,CSc1ccc2c(c1)N(CCC1CCCCN1C)c1ccccc1S2 (stereo not drawn) [thioridazine],above 1 µM

# Same assay, conditions: α-synuclein oligomer 1.0 μM; 0.5–20 µM
row,Compound,inhibition of α-synuclein oligomer-induced trafficking deficits (in words)
1,CC(NC(C)(C)C)C(=O)c1cccc(Cl)c1 (stereo not drawn) [bupropion],weakly inhibited
2,NC(=O)N1c2ccccc2C=Cc2ccccc21 [carbamazepine],inhibited deficits at low concentrations
3,CCCCCCNC(=O)n1cc(F)c(=O)[nH]c1=O [carmofur],weakly inhibited
4,CCCCC1=NC2(CCCC2)C(=O)N1Cc1ccc(-c2ccccc2-c2nnn[nH]2)cc1 [irbesartan],weakly inhibited
5,CC[C@H](C)C(=O)O[C@H]1C[C@@H](C)C=C2C=C[C@H](C)[C@H](CC[C@@H]3C[C@@H](O)CC(=O)O3)[C@H]21 [lovastatin],inhibited deficits at low concentrations
